Measured values reported in US20010044445A1, “AZOLE INHIBITORS OF CYTOKINE PRODUCTION” (priority 1999, published 2001).

How the values were obtained:
[1] = test system: Human peripheral blood mononuclear cells; test: Human Concanavalin-A Proliferation Assay (Con HU Assay); format: cell-based; details: Homo sapiens, PBMC, concanavalin-A stimulated human PBMC; for inhibition at 1 µM / inhibition at 100 µM / inhibition at 10 µM: 72 h, 3 days, read-out: % Inhibition of proliferation (at concentrations of 1,10, or 100 μm); for inhibition at 1 µM: concentration 1 μm (in parentheses in the cell); for IC50: tritiated thymidine; for inhibition at 100 µM: concentration 100 μm (in parentheses in the cell); for inhibition at 10 µM: concentration 10 μm (in parentheses in the cell)
In short: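 Histopaque-isolated human PBMC (50,000/well) were pre-incubated 15 min with compounds, then stimulated with concanavalin-A at 2.5 μg/ml final for 3 days at 37 °C, 5% CO2. Proliferation measured by 6 h pulse with 0.5 μCi/well [3H]thymidine and beta counting.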

Compound	melting point [°C]	inhibition at 1 µM [1] [%]	IC50 [1] [µM]	inhibition at 100 µM [1] [%]	inhibition at 10 µM [1] [%]
COc1cccc2cc(C(=O)Nc3ccc(-n4nc(C(F)(F)F)cc4C(F)(F)F)cc3)oc12 [Example 49, N-[4-[3,5-bis(trifluoromethyl)-1H-pyrazol-1-yl]phenyl]-7-methoxy-2-benzofurancarboxamide]	109 to 110	9			
O=C(Nc1ccc(-n2nc(C(F)(F)F)cc2-c2cccnc2)cc1)c1ccccc1F [Example 310, 2-fluoro-N-(4-(5-(3-pyridinyl)-3-(trifluoromethyl)-1H-pyrazol-1-yl)phenyl)benzamide]	138 to 140		0.335		
Cc1cc(C)c(C(=O)Nc2ccc(-n3nc(C(F)(F)F)cc3C(F)(F)F)cc2)c(C)c1 [Example 78, N-[4-[3,5-bis(trifluoromethyl)-1H-pyrazol-1-yl]phenyl]-2,4,6-trimethylbenzamide]	203 to 205		0.607	95	
O=C(Nc1ccc(-n2nc(C(F)(F)F)cc2C(F)(F)F)cc1-n1nc(C(F)(F)F)cc1C(F)(F)F)c1ccc(F)cc1F [Example 273, N-[2,4-bis[3,5-bis(trifluoromethyl)-1H-pyrazol-1-yl]phenyl]-2,4-difluorobenzamide]	114 to 115	12			
Cc1c(NC(=O)Nc2ccc(-n3nc(C(F)(F)F)cc3C(F)(F)F)cc2)cccc1[N+](=O)[O-] [Example 40, N-[4-[3,5-bis(trifluoromethyl)-1H-pyrazol-1-yl]phenyl]-N′-(2-methyl-3-nitrophenyl)urea]	235 to 236	36			
O=C(Nc1ccc(-n2nc(C(F)(F)F)cc2C(F)(F)F)cc1)c1cc(F)c(Cl)cc1F [Example 225, N-[4-[3,5-bis(trifluoromethyl)-1H-pyrazol-1-yl]phenyl]-4-chloro-2,5-difluorobenzamide]	160 to 162		0.154		98
Cc1nc(C)n(-c2ccc(NC(=O)c3c(C)noc3C)cc2)n1 [Example 189, 3,5-dimethyl-N-[4-(3,5-dimethyl-1H-1,2,4-triazol-1-yl)phenyl]-4-isoxazolecarboxamide]	170 to 171	24			
O=C(Nc1ccc(-n2nc(C(F)(F)F)cc2C(F)(F)F)cc1)c1cc(F)c(F)c(F)c1F [Example 235, N-[4-[3,5-bis(trifluoromethyl)-1H-pyrazol-1-yl]phenyl]-2,3,4,5-tetrafluorobenzamide]	138 to 140		0.107		100
Cc1nnsc1C(=O)Nc1ccc(-n2nc(C(F)(F)F)cc2C#N)cc1 [Example 302, N-(4-(5-cyano-3-(trifluoromethyl)-1H-pyrazol-1-yl)phenyl)-4-methyl-1,2,3-thiadiazole-5-carboxamide]	193 to 195		0.358		
O=C(Nc1ccc(-n2nc(C(F)(F)F)cc2C(F)(F)F)cc1)C1CCCO1 (stereo not shown) [Example 241, N-[4-[3,5-bis(trifluoromethyl)-1H-pyrazol-1-yl]phenyl]tetrahydro-2-furancarboxamide]	113 to 116	10			
COc1ccccc1C(=O)Nc1ccc(-n2nc(C(F)(F)F)cc2C(F)(F)F)cc1 [Example 143, N-[4-[3,5-bis(trifluoromethyl)-1H-pyrazol-1-yl]phenyl]-2-methoxybenzamide]	100 to 102		1.68	100	
O=C(Nc1ccc(-n2nc(C(F)(F)F)cc2C(F)(F)F)cc1)c1ccno1 [Example 240, N-[4-[3,5-bis(trifluoromethyl)-1H-pyrazol-1-yl]phenyl]-5-isoxazolecarboxamide]	202 to 204		0.507		84
O=C(Nc1ccc(-n2nc(C(F)(F)F)cc2C(F)(F)F)cc1)c1ccc(CO)cc1 [Example 107, N-[4-[3,5-bis(trifluoromethyl)-1H-pyrazol-1-yl]phenyl]-4-(hydroxymethyl)benzamide]	213 to 214		0.304		99
O=C(Nc1ccc(-n2nc(C(F)(F)F)cc2C(F)(F)F)cc1)c1c(F)ccc([N+](=O)[O-])c1F [Example 230, N-[4-[3,5-bis(trifluoromethyl)-1H-pyrazol-1-yl]phenyl]-2,6-difluoro-3-nitrobenzamide]	187 to 189	64			
CC(=O)c1ccc(C(=O)Nc2ccc(-n3nc(C(F)(F)F)cc3C(F)(F)F)cc2)cc1 [Example 119, 4-Acetyl-N-[4-[3,5-bis(trifluoromethyl)-1H-pyrazol-1-yl]phenyl]benzamide]	203 to 204		0.572		100
O=C(Nc1ccc(-n2nc(C(F)(F)F)cc2C(F)(F)F)cc1)c1ccc(-n2cccc2)cc1 [Example 46, N-[4-[3,5-bis(trifluoromethyl)-1H-pyrazol-1-yl]phenyl]-4-(1H-pyrrol-1-yl)benzamide]	249 to 252	10			
N#Cc1ccccc1NC(=O)c1ccc(-n2nc(C(F)(F)F)cc2C(F)(F)F)cc1 [Example 188, 4-[3,5-Bis(trifluoromethyl)-1H-pyrazol-1-yl]-N-(2-cyanophenyl)benzamide]	203 to 205		0.485		87
CC(=O)N1CCC(C(=O)Nc2ccc(-n3nc(C(F)(F)F)cc3C(F)(F)F)cc2)CC1 [Example 174, 1-Acetyl-N-[4-[3,5-bis(trifluoromethyl)-1H-pyrazol-1-yl]phenyl]-4-piperidinecarboxamide]	94 to 95		0.73		99
Cc1noc(C)c1C(=O)Nc1ccc(-n2nc(C(F)(F)F)cc2C(F)(F)F)cc1C(F)(F)F [Example 278, N-[4-[3,5-bis(trifluoromethyl)-1H-pyrazol-1-yl]-2-(trifluoromethyl)phenyl]-3,5-dimethyl-4-isoxazolecarboxamide]	145 to 146	4			
O=C(Nc1ccc(-n2nc(C(F)(F)F)cc2C(F)(F)F)cc1)c1cccnc1Cl [Example 150, N-[4-[3,5-bis(trifluoromethyl)-1H-pyrazol-1-yl]phenyl]-2-chloro-3-pyridinecarboxamide]	145 to 147		0.244	100	
Cc1nnsc1C(=O)Nc1ccc(-n2nc(C(F)(F)F)cc2OC(F)F)cc1 [Example 323, N-(4-(5-(difluoromethoxy)-3-(trifluoromethyl)-1H-pyrazol-1-yl)phenyl)-4-methyl-1,2,3-thiadiazole-5-carboxamide]	122 to 123		0.238		
O=C(Nc1ccc(-n2nc(C(F)(F)F)cc2C(F)(F)F)cc1)c1ccccc1F [Example 114, N-[4-[3,5-bis(trifluoromethyl)-1H-pyrazol-1-yl]phenyl]-2-fluorobenzamide]	188 to 190		0.084	98	
Cc1ccsc1C(=O)Nc1ccc(-n2nc(C(F)(F)F)cc2C(F)(F)F)cc1 [Example 162, N-[4-[3,5-bis(trifluoromethyl)-1H-pyrazol-1-yl]phenyl]-3-methyl-2-thiophenecarboxamide]	185 to 188		0.044		100
CC(C)=CC(=O)Nc1ccc(-n2nc(C(F)(F)F)cc2C(F)(F)F)cc1 [Example 102, N-[4-[3,5-bis(trifluoromethyl)-1H-pyrazol-1-yl]phenyl]-3-methyl-2-butenamide]	150 to 152		0.503	100	
O=C(Nc1ccc(-n2nc(C(F)(F)F)cc2C(F)(F)F)cc1)c1cc(F)c(F)cc1Cl [Example 223, N-[4-[3,5-bis(trifluoromethyl)-1H-pyrazol-1-yl]phenyl]-2-chloro-4,5-difluorobenzamide]	149 to 152		0.093		100
NS(=O)(=O)c1cccc(C(=O)Nc2ccc(-n3nc(C(F)(F)F)cc3C(F)(F)F)cc2)c1 [Example 141, 3-(aminosulfonyl)-N-[4-[3,5-bis(trifluoromethyl)-1H-pyrazol-1-yl]phenyl]benzamide]	177 to 178	4			
O=C(Nc1ccc(-n2nc(C(F)(F)F)cc2C(F)(F)F)cc1)c1ccc([N+](=O)[O-])o1 [Example 247, N-[4-[3,5-bis(trifluoromethyl)-1H-pyrazol-1-yl]phenyl]-5-nitro-2-furancarboxamide]	198 to 199		0.375		97
O=C(Nc1ccccc1[N+](=O)[O-])c1ccc(-n2nc(C(F)(F)F)cc2C(F)(F)F)cc1 [Example 190, 4-[3,5-Bis(trifluoromethyl)-1H-pyrazol-1-yl]-N-(2-nitrophenyl)benzamide]	173 to 175	3			
CN(C)c1ccccc1C(=O)Nc1ccc(-n2nc(C(F)(F)F)cc2C(F)(F)F)cc1 [Example 86, N-[4-[3,5-bis(trifluoromethyl)-1H-pyrazol-1-yl]phenyl]-2-(dimethylamino)benzamide]		33			
O=C(Nc1ccc(-n2nc(-c3ccncc3)cc2C(F)(F)F)cc1)c1ccncc1F [Example 318, 3-fluoro-N-(4-(3-(4-pyridinyl)-5-(trifluoromethyl)-1H-pyrazol-1-yl)phenyl)isonicotinamide]			0.258		
